target: Diacylglycerol acyltransferase/mycolyltransferase Ag85C (Mycobacterium tuberculosis, UniProt P9WQN9); test: In vitro concentration required to inhibit antigen 85C mycolyltransferase activity in Mycobacterium tuberculosis
Sequence (P9WQN9 whole entry): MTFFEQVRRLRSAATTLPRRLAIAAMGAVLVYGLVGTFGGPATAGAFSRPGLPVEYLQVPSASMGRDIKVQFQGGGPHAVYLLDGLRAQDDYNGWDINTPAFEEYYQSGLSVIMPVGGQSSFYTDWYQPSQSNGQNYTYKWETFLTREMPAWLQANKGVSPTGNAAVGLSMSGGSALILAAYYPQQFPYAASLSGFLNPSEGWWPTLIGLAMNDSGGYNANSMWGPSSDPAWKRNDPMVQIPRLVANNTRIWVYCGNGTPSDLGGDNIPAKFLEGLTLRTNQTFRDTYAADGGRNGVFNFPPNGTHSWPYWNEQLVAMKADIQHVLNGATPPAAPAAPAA

Row | Structure (SMILES) | IC50 [µM]
1 | CCCCCCCP(=O)(O)OCCN1C(=O)c2ccccc2C1=O | 1.47
2 | CCCCP(=O)(O)OCC [ETHYL HYDROGEN BUTYLPHOSPHONATE] | 431
3 | CCCCP(=O)(OCC)OCN1C(=O)c2ccccc2C1=O (configuration not stated) | 10
4 | CCCCCCCCCCCCCCP(=O)(OCC)OCc1cccc(Oc2ccccc2)c1 (configuration not stated) | 862
5 | CCCCCCCCCP(=O)(OCC)OCN1C(=O)c2ccccc2C1=O (configuration not stated) | 87.1
6 | CCCCCCCCCP(=O)(O)OCC [ETHYL HYDROGEN NONYLPHOSPHONATE] | 471
7 | CCCCCCCP(=O)(OCC)OCc1cccc(Oc2ccccc2)c1 (configuration not stated) | 21
8 | CCCCP(=O)(OCC)OCc1cccc(Oc2ccccc2)c1 (configuration not stated) | 2.01
9 | CCCCCCCCCCCCCCP(=O)(OCC)OCN1C(=O)c2ccccc2C1=O (configuration not stated) | 41
10 | CCCCCCCP(=O)(O)OCC [ETHYL HYDROGEN HEPTYLPHOSPHONATE] | 1.06
11 | CCCCCCP(=O)(O)OCCN1C(=O)c2ccccc2C1=O | 4.39
12 | CCCCCCCCCP(=O)(OCC)OCc1cccc(Oc2ccccc2)c1 (configuration not stated) | 14.8
13 | CCCCP(=O)(OCC)OCCN1C(=O)c2ccccc2C1=O (configuration not stated) | 50.7
14 | CCCCCCCCCP(=O)(OCC)OCCN1C(=O)c2ccccc2C1=O (configuration not stated) | 25.7
15 | CCCCCCCP(=O)(OCC)OCN1C(=O)c2ccccc2C1=O (configuration not stated) | 1.31
16 | CCCCCCP(=O)(O)OCC [ETHYL HYDROGEN HEXYLPHOSPHONATE] | 3.56
17 | CCCCCCP(=O)(OCC)OCc1cccc(Oc2ccccc2)c1 (configuration not stated) | 42.6

— ChEMBL document CHEMBL1147478, “Phosphonate inhibitors of antigen 85C, a crucial enzyme involved in the biosynthesis of the Mycobacterium tuberculosis cell wall” (Bioorg Med Chem Lett, 2004)
